System: obstructive sleep apnea (OSA) human patients
Conditions: seven OSA patients, 2 additional nights with single drugs
Method: Subsequently, a placebo-controlled, double-blinded, randomized, crossover trial in 20 obstructive sleep apnea (OSA) human patients was performed. Participants received treatment (Atomoxetine 80 mg+Oxybutynin 5 mg) or placebo in randomized order 30 minutes before sleep. […] Data are expressed as median [25th-75th percentile]
Seven OSA patients were studied also on 2 additional nights in which the 2 drugs were administered alone (not in combination).
Group data was obtained using genioglossus electromyography in 16 out of 20 patients who took part to the original trial to determine the effect of Atomoxetine plus Oxybutynin (ato-oxy) on genioglossus muscle responsiveness. Muscle responsiveness reflects the change in genioglossus muscle electromyographic activity (percent of baseline) per change in esophageal pressure (Pes) swings during spontaneous breathing in non-REM sleep (see FIG. 10B for physiological context).

Compound | AHI compared to placebo, drugs alone vs in combination
CNCC[C@@H](Oc1ccccc1C)c1ccccc1 [Atomoxetine] | did not improve the AHI
CCN(CC)CC#CCOC(=O)C(O)(c1ccccc1)C1CCCCC1 (centres unmarked) [Oxybutynin] | did not improve the AHI
